From patent publication US12673975B2, “Cyclic peptide, cell scaffold material, cell separating material, and medium” (FUJIFILM Corporation, priority 2019, dated 2026)
Starred links: 1 amine or outer side, 2 acyl side, 3 side chain; linkers in the order of their positions; H or OH if unused. Positions of bridges follow the written chain, without caps; N, C: chain ends. Non-standard residues stand in square brackets, D forms with d. Residues, ends and D or L forms follow the SMILES beside them. hCys = N[C@@H](CCS)C(=O)O; Dab = NCC[C@H](N)C(=O)O; X2 = O=C(C[*:1])[*:2]

What was measured:
human integrin αvβ5 = human integrin αvβ5 (Homo sapiens, UniProt P06756+P18084); assay: Evaluation of integrin binding property (surface plasmon resonance, Biacore 3000, immobilized cyclic peptide); settings: SPR, 25° C., HEPES buffer with 5 mM magnesium chloride, integrin 30-1,000 nM; read-out: Performance evaluation: Binding activity (dissociation constant between the cyclic peptide and human integrin αvβ5)
Procedure: A commercially available CMS (a carboxymethyl dextran introduction type, manufactured by GE Healthcare) sensor chip was set in Biacore 3000, which is a surface plasmon resonance apparatus manufactured by GE Healthcare, the sensor was stabilized at a flow rate of 10 μL/min of a HEPES (4-(2-hydroxyethyl)-1-piperazineethanesulfonic acid) buffer solution (20 mM HEPES-HCl, 150 mM NaCl, pH 7.4) for surface plasmon resonance (SPR), and 70 μL of a mixed aqueous solution of 0.2 M 1-(3-dimethylaminopropyl)-3-ethylcarbodiimide (EDC) and 0.04 M N-hydroxysuccinimide (NHS) was added thereto. Here, the concentration unit M represents mol/L, and the same applies hereinafter. Then, 20 μL of the sample solution of each of the above cyclic peptides diluted to 0.2 g/L with the HEPES buffer solution was supplied to the sensor chip, blocking treatment was subsequently carried out with an ethanolamine solution, and washing was carried out with a sodium hydroxide aqueous solution, whereby immobilization was carried out. However, only for the cyclic peptides 125, 126, and 127, in which the number of lysine residues having an amino group as the immobilizing functional group was zero, the amount of the sample solution to be supplied to the sensor chip was set to 500 μL instead of 20 μL. Further, 70 μL of the mixed aqueous solution of 0.2 M EDC and 0.04 M NHS was added to another flow channel of the same sensor chip without immobilizing the sample, and then blocking treatment and washing treatment were carried out. Hereinafter, the obtained immobilization-treated sensor chip is referred to as an “immobilization-treated sensor chip A”.
After adding human integrin αvβ5 for 10 minutes at 25° C., which was diluted to 30 nM using a HEPES buffer solution to which magnesium chloride was added to 5 mM, in each flow channel of the immobilization-treated sensor chip A prepared in (1) above, the same HEPES buffer solution (containing 5 mM magnesium chloride) was allowed to flow as a running buffer for 30 minutes, and measurement was carried out with Biacore 3000. Then, a regeneration treatment of removing human integrin αvβ5 was carried out by allowing a 0.5 M EDTA aqueous solution to flow through each flow channel for 10 minutes. Further, the above-described measurement process consisting of adding integrin for 10 minutes, allowing a running buffer to flow for 30 minutes, carrying out measurement with Biacore 3000, and carrying out regeneration treatment with 0.5 M EDTA aqueous solution was carried out in the same manner for 100 nM human integrin αvβ5, 300 nM human integrin αvβ5, and 1,000 nM human integrin αvβ5. Dissociation constant between the cyclic peptide and human integrin αvβ5 was calculated from the difference between the value measured by Biacore 3000 in the flow channel immobilized with the cyclic peptide and the value measured by Biacore 3000 in the flow channel unimmobilized with the cyclic peptide, in a case where each concentration of human integrin αvβ5 was allowed to flow, and the integrin binding property was evaluated according to the following evaluation standards. It is preferable that the evaluation result satisfies the evaluation standard A, B, or C.

[1] = Evaluation of molecule stability (alkali treatment, residual rate by LC/MS); format: physicochemical; settings: 500 μM peptide aqueous solution plus equivalent of 1 M sodium hydroxide, 15° C., 3 hours, LC/MS peak area
Procedure: The molecule stability of the cyclic peptide was evaluated by analyzing the alkali-treated cyclic peptide aqueous solution by liquid chromatography mass spectroscopy (LC/MS).
The alkali treatment was carried out by the following method. A 500 μM cyclic peptide aqueous solution was prepared, an equivalent of 1 M sodium hydroxide aqueous solution was added to this aqueous solution, and the resultant mixture was incubated at 15° C. for 3 hours to obtain an alkali-treated cyclic peptide aqueous solution. The cyclic peptide residual rate was calculated by setting the total area of all peaks of the cyclic peptide before alkali treatment in LC/MS to 100% and determining the proportion of the total area of all peaks in LC/MS of the alkali-treated cyclic peptide aqueous solution, and the molecule stability was evaluated according to the following evaluation standards. It is preferable that the evaluation result satisfies the evaluation standard A, B, or C.
The conditions of the LC/MS used for the evaluation of molecule stability were set as follows. • LC apparatus: Prominence series (pump, column oven, autosampler, detector) (manufactured by Shimadzu Corporation) • MS detector: LC/MS2010EV (manufactured by Shimadzu Corporation) • Column: Cadenza CD-C18, inner diameter 2.0 mm×length 250 mm, particle size: 3 μm (manufactured by Imtakt Corporation) • Eluent A: a solution (pH 3) containing 10 mM ammonium formate as a solute, where the solvent is 100% water. • Eluent B: a solution (pH 3) containing 10 mM ammonium formate as a solute, where the solvent is acetonitrile/water=90/10. • Flow rate: 0.2 mL/min • Injection volume: 4 μL • Gradient: 0% to 30%: Eluent B (0 to 30 minutes), 100%: Eluent B (30 to 40 minutes), 0%: Eluent B (40 to 60 minutes) • Column temperature: 45° C. • Ionization method: electrospray ionization (ESI) positive, ESI negative

Chain of human integrin αvβ5 (P06756 31-1048): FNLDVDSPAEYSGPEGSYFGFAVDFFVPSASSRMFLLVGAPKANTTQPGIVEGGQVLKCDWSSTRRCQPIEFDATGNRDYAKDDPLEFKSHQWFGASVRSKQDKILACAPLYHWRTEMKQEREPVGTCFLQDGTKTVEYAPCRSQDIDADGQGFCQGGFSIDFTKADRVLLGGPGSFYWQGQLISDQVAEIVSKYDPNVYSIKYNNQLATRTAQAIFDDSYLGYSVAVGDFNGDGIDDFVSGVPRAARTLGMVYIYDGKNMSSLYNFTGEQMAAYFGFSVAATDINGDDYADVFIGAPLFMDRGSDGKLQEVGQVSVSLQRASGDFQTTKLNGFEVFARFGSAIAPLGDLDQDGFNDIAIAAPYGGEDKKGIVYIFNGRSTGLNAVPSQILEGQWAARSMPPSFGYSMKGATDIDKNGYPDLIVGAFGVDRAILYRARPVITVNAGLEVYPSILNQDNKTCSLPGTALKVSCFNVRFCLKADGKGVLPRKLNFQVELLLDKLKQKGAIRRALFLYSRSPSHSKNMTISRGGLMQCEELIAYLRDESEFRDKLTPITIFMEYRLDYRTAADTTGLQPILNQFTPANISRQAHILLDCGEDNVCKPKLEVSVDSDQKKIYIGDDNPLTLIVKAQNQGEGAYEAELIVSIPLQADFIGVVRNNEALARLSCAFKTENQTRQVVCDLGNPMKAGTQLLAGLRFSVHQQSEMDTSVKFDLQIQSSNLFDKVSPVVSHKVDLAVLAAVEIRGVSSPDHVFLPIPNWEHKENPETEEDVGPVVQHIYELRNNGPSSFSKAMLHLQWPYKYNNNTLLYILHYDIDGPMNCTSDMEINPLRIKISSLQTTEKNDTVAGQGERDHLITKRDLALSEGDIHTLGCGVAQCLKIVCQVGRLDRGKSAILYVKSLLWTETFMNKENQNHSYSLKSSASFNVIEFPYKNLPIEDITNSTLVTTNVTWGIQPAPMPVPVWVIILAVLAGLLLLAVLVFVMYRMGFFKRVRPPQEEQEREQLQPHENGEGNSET
Chain of human integrin αvβ5 (P18084 24-799): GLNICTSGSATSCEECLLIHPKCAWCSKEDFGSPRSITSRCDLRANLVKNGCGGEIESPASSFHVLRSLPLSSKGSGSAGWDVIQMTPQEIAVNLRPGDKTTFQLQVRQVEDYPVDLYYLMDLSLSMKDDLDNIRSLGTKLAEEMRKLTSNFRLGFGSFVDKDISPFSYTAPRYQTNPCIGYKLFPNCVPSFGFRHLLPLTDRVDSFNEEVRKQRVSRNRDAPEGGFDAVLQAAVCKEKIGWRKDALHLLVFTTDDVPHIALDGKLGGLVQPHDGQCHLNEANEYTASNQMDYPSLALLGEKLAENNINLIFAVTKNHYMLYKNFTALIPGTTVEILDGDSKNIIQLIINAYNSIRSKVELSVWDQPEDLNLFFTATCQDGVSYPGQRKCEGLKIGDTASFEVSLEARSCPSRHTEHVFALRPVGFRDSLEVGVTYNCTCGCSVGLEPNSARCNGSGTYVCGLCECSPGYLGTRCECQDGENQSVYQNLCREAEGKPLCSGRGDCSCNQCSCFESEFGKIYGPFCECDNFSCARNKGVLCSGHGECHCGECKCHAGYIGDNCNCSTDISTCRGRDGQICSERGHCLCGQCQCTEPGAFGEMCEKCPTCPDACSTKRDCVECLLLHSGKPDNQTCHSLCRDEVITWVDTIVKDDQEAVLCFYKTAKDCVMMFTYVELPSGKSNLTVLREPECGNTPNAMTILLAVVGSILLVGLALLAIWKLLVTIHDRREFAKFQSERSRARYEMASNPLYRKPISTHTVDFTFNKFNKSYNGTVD

| SMILES | Kd (human integrin αvβ5) | Performance evaluation: Stability (residual rate of cyclic peptide after alkali treatment) [1] |
| --- | --- | --- |
| CC[C@H](C)[C@@H]1NC(=O)[C@@H](NC(=O)[C@H](C)NC(=O)[C@H](CCCCN)NC(=O)[C@H](CCCCN)NC(=O)[C@@H](N)CCCCN)CCSCC(=O)NCC[C@@H](C(=O)N[C@@H](C)C(=O)O)NC(=O)[C@H]([C@@H](C)O)NC(=O)[C@H](Cc2ccccc2)NC(=O)[C@H]([C@@H](C)O)NC(=O)[C@H](CC(=O)O)NC(=O)CNC(=O)[C@H](CCCNC(=N)N)NC(=O)[C@@H]2CCCN2C1=O [Cyclic peptide 82, KKKA-(Hcy)-IPRGDTFT(Dab(acetyl))A] (H-KKKA[hCys]IPRGDTFT[Dab]A-OH; linker 5-14 via X2) | 50 to 100 nM | A (The residual rate of the cyclic peptide is 70% or more.) |
| C[C@H](NC(=O)[C@@H]1CCNC(=O)CSCC[C@H](NC(=O)[C@H](CCCCN)NC(=O)[C@H](CCCCN)NC(=O)[C@@H](N)CCCCN)C(=O)N[C@@H](Cc2ccc(O)cc2)C(=O)N2CCC[C@H]2C(=O)N[C@@H](CCCNC(=N)N)C(=O)NCC(=O)N[C@@H](CC(=O)O)C(=O)N[C@@H](CC(N)=O)C(=O)N[C@@H](Cc2ccccc2)C(=O)N[C@@H](CCCNC(=N)N)C(=O)N1)C(=O)O [Cyclic peptide 24, KKK-(Hcy)-YPRGDNFR(Dab(acetyl))A] (H-KKK[hCys]YPRGDNFR[Dab]A-OH; linker 4-13 via X2) | < 50 nM | A (The residual rate of the cyclic peptide is 70% or more.) |
| CC[C@H](C)[C@@H]1NC(=O)[C@@H](NC(=O)[C@H](C)NC(=O)[C@H](CCCCN)NC(=O)[C@H](CCCCN)NC(=O)[C@@H](N)CCCCN)CCSCC(=O)NCC[C@@H](C(=O)NCC(=O)O)NC(=O)[C@H](C)NC(=O)[C@H](Cc2ccccc2)NC(=O)[C@H](CO)NC(=O)[C@H](CC(=O)O)NC(=O)CNC(=O)[C@H](CCCNC(=N)N)NC(=O)[C@@H]2CCCN2C1=O [Cyclic peptide 93, KKKA-(Hcy)-IPRGDSFA(Dab(acetyl))G] (H-KKKA[hCys]IPRGDSFA[Dab]G-OH; linker 5-14 via X2) | < 50 nM | A (The residual rate of the cyclic peptide is 70% or more.) |
| CC[C@H](C)[C@@H]1NC(=O)[C@@H](NC(=O)CNC(=O)[C@H](CCCCN)NC(=O)[C@H](CCCCN)NC(=O)[C@@H](N)CCCCN)CCSCC(=O)NCC[C@@H](C(=O)N[C@@H](C)C(=O)O)NC(=O)[C@H](CCCNC(=N)N)NC(=O)[C@H](Cc2ccccc2)NC(=O)[C@H](CC(N)=O)NC(=O)[C@H](CC(=O)O)NC(=O)CNC(=O)[C@H](CCCNC(=N)N)NC(=O)[C@@H]2CCCN2C1=O [Cyclic peptide 1, KKKG-(Hcy)-IPRGDNFR(Dab(acetyl))A] (H-KKKG[hCys]IPRGDNFR[Dab]A-OH; linker 5-14 via X2) | < 50 nM | A (The residual rate of the cyclic peptide is 70% or more.) |
| CC(C)C[C@@H]1NC(=O)[C@@H](NC(=O)CNC(=O)[C@H](CCCCN)NC(=O)[C@H](CCCCN)NC(=O)[C@@H](N)CCCCN)CCSCC(=O)NCC[C@@H](C(=O)N[C@@H](C)C(=O)O)NC(=O)[C@H](CCCNC(=N)N)NC(=O)[C@H](Cc2ccccc2)NC(=O)[C@H](CC(N)=O)NC(=O)[C@H](CC(=O)O)NC(=O)CNC(=O)[C@H](CCCNC(=N)N)NC(=O)[C@@H]2CCCN2C1=O [Cyclic peptide 27, KKKG-(Hcy)-LPRGDNFR(Dab(acetyl))A] (H-KKKG[hCys]LPRGDNFR[Dab]A-OH; linker 5-14 via X2) | < 50 nM | A (The residual rate of the cyclic peptide is 70% or more.) |
| N=C(N)NCCC[C@@H]1NC(=O)[C@H](Cc2ccc(O)cc2)NC(=O)[C@H](CC(N)=O)NC(=O)[C@H](CC(=O)O)NC(=O)CNC(=O)[C@H](CCCNC(=N)N)NC(=O)[C@@H]2CCCN2C(=O)[C@H](CCC(=O)O)NC(=O)[C@@H](NC(=O)[C@H](CCCCN)NC(=O)[C@H](CCCCN)NC(=O)[C@@H](N)CCCCN)CCSCC(=O)NCC[C@@H](C(=O)O)NC1=O [Cyclic peptide 44, KKK-(Hcy)-EPRGDNYR(Dab(acetyl))] (H-KKK[hCys]EPRGDNYR[Dab]-OH; linker 4-13 via X2) | 50 to 100 nM | A (The residual rate of the cyclic peptide is 70% or more.) |
| C[C@H](NC(=O)[C@H](CCCCN)NC(=O)[C@H](CCCCN)NC(=O)[C@@H](N)CCCCN)C(=O)N[C@H]1CCSCC(=O)NCC[C@@H](C(=O)NCC(=O)O)NC(=O)[C@H](CCCNC(=N)N)NC(=O)[C@H](Cc2ccc(O)cc2)NC(=O)[C@H](CC(N)=O)NC(=O)[C@H](CC(=O)O)NC(=O)CNC(=O)[C@H](CCCNC(=N)N)NC(=O)[C@@H]2CCCN2C(=O)[C@H](CCC(=O)O)NC1=O [Cyclic peptide 40, KKKA-(Hcy)-EPRGDNYR(Dab(acetyl))G] (H-KKKA[hCys]EPRGDNYR[Dab]G-OH; linker 5-14 via X2) | 50 to 100 nM | A (The residual rate of the cyclic peptide is 70% or more.) |
| C[C@H](NC(=O)[C@H](CCCCN)NC(=O)[C@H](CCCCN)NC(=O)[C@@H](N)CCCCN)C(=O)N[C@H]1CCSCC(=O)NCC[C@@H](C(=O)N[C@@H](CC(=O)O)C(=O)O)NC(=O)[C@H](CCCNC(=N)N)NC(=O)[C@H](Cc2ccc(O)cc2)NC(=O)[C@H](CC(N)=O)NC(=O)[C@H](CC(=O)O)NC(=O)CNC(=O)[C@H](CCCNC(=N)N)NC(=O)[C@@H]2CCCN2C(=O)[C@H](CCC(=O)O)NC1=O [Cyclic peptide 42, KKKA-(Hcy)-EPRGDNYR(Dab(acetyl))D] (H-KKKA[hCys]EPRGDNYR[Dab]D-OH; linker 5-14 via X2) | 50 to 100 nM | A (The residual rate of the cyclic peptide is 70% or more.) |
| C[C@H](NC(=O)[C@H](CCCCN)NC(=O)[C@H](CCCCN)NC(=O)[C@@H](N)CCCCN)C(=O)N[C@H]1CCSCC(=O)NCC[C@@H](C(=O)N[C@@H](CC(=O)O)C(=O)O)NC(=O)[C@H](CCCNC(=N)N)NC(=O)[C@H](Cc2ccccc2)NC(=O)[C@H](CC(N)=O)NC(=O)[C@H](CC(=O)O)NC(=O)CNC(=O)[C@H](CCCNC(=N)N)NC(=O)[C@@H]2CCCN2C(=O)[C@H](CCC(=O)O)NC1=O [Cyclic peptide 34, KKKA-(Hcy)-EPRGDNFR(Dab(acetyl))D] (H-KKKA[hCys]EPRGDNFR[Dab]D-OH; linker 5-14 via X2) | < 50 nM | A (The residual rate of the cyclic peptide is 70% or more.) |
